Values joined by “and” are separate entries in the source; they are usually repeats but may differ in a detail not shown here. Identical values can stand only once. Inconclusive results and toxic doses are left out. Cut-off read from the data, not from the text of the source: active = T/C of 150% or more; inactive = T/C below 125%.
System: L1210 leukemia ip in BDF1 mice, survival T/C
Assay: NCI In Vivo Anticancer Drug Screen. Data for tumor model L1210 Leukemia (intraperitoneal) in B6D2F1 (BDF1) mice
Details: endpoint: mean survival time, higher = longer survival
In short: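 Value reflects the ratio of survival in compound-treated mice to survival in vehicle-treated controls, with both groups carrying the same transplanted tumor.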

[1] = dose: 50.0 mg/kg/injection, schedule: Q01DX009 (ip), vehicle: saline
[2] = dose: 100.0 mg/kg/injection, schedule: Q01DX001 (ip), vehicle: saline
[3] = dose: 100.0 mg/kg/injection, schedule: Q01DX009 (ip), vehicle: saline
[4] = dose: 100.0 mg/kg/injection, schedule: Q04DX003 (ip), vehicle: saline
[5] = dose: 200.0 mg/kg/injection, schedule: Q01DX001 (ip), vehicle: saline
[6] = dose: 200.0 mg/kg/injection, schedule: Q04DX003 (ip), vehicle: saline
[7] = dose: 400.0 mg/kg/injection, schedule: Q01DX001 (ip), vehicle: saline
[8] = dose: 400.0 mg/kg/injection, schedule: Q01DX009 (ip), vehicle: saline
[9] = dose: 100.0 mg/kg/injection, schedule: Q04DX002 (ip), vehicle: saline with Tween-80
[10] = dose: 200.0 mg/kg/injection, schedule: Q04DX002 (ip), vehicle: saline with Tween-80
[11] = dose: 400.0 mg/kg/injection, schedule: Q04DX002 (ip), vehicle: saline with Tween-80
[12] = dose: 400.0 mg/kg/injection, schedule: Q04DX003 (ip), vehicle: saline

Measured: T/C

O=C1C=CC(=O)O1 (tested in a mixture with another compound)
inactive: dose: 0.22 mg/kg/injection, schedule: Q01DX009 (ip), vehicle: acetone 96 % of control | dose: 0.44 mg/kg/injection, schedule: Q01DX009 (ip), vehicle: acetone 105 % of control | dose: 0.78 mg/kg/injection, schedule: Q04DX003 (ip), vehicle: other 93 % of control | dose: 0.88 mg/kg/injection, schedule: Q01DX009 (ip), vehicle: acetone 92 % of control | dose: 1.56 mg/kg/injection, schedule: Q04DX003 (ip), vehicle: other 96 % of control | dose: 3.12 mg/kg/injection, schedule: Q04DX003 (ip), vehicle: other 104 % of control | dose: 4.6 mg/kg/injection, schedule: Q04DX003 (ip), vehicle: Klucel (hydroxypropylcellulose) (HPC) 96 % of control | dose: 7.1 mg/kg/injection, schedule: Q04DX003 (ip), vehicle: Klucel (hydroxypropylcellulose) (HPC) 96 % of control | dose: 15.0 mg/kg/injection, schedule: Q01DX001 (ip), vehicle: carboxymethylcellulose (CMC) 112 % of control | dose: 22.0 mg/kg/injection, schedule: Q01DX015 (ip), vehicle: carboxymethylcellulose (CMC) 101 % of control and 119 % of control | dose: 30.0 mg/kg/injection, schedule: Q01DX001 (ip), vehicle: carboxymethylcellulose (CMC) 116 % of control | dose: 31.25 mg/kg/injection, schedule: Q#A X Z (ip), vehicle: carboxymethylcellulose (CMC) 96 % of control and 93 % of control and 108 % of control | dose: 33.0 mg/kg/injection, schedule: Q01DX015 (ip), vehicle: carboxymethylcellulose (CMC) 101 % of control and 103 % of control | [1] 107 % of control [middle of 5 runs] | dose: 50.0 mg/kg/injection, schedule: Q01DX015 (ip), vehicle: carboxymethylcellulose (CMC) 108 % of control | dose: 62.5 mg/kg/injection, schedule: Q#A X Z (ip), vehicle: carboxymethylcellulose (CMC) 96 % of control and 95 % of control and 106 % of control | dose: 75.0 mg/kg/injection, schedule: Q01DX001 (ip), vehicle: carboxymethylcellulose (CMC) 119 % of control | dose: 75.0 mg/kg/injection, schedule: Q01DX001 (ip), vehicle: water 104 % of control | dose: 75.0 mg/kg/injection, schedule: Q01DX015 (ip), vehicle: carboxymethylcellulose (CMC) 98 % of control | [2] 115 % of control | [3] 112 % of control [middle of 7 runs] | [4] 107 % of control and 112 % of control and 109 % of control | dose: 125.0 mg/kg/injection, schedule: Q#A X Z (ip), vehicle: carboxymethylcellulose (CMC) 86 % of control and 102 % of control and 106 % of control | dose: 125.0 mg/kg/injection, schedule: Q#A X Z (oral), vehicle: carboxymethylcellulose (CMC) 106 % of control and 100 % of control | dose: 150.0 mg/kg/injection, schedule: Q01DX001 (ip), vehicle: water 106 % of control | dose: 177.0 mg/kg/injection, schedule: Q01DX001 (ip), vehicle: saline 98 % of control | [5] 107 % of control | [6] 106 % of control [middle of 4 runs] | dose: 250.0 mg/kg/injection, schedule: Q#A X Z (ip), vehicle: carboxymethylcellulose (CMC) 86 % of control and 108 % of control and 90 % of control | dose: 250.0 mg/kg/injection, schedule: Q#A X Z (oral), vehicle: carboxymethylcellulose (CMC) 106 % of control and 100 % of control and 103 % of control | dose: 270.0 mg/kg/injection, schedule: Q01DX001 (ip), vehicle: saline 105 % of control | dose: 300.0 mg/kg/injection, schedule: Q01DX001 (ip), vehicle: water 97 % of control | [7] 112 % of control and 100 % of control | [8] 113 % of control | dose: 500.0 mg/kg/injection, schedule: Q#A X Z (oral), vehicle: carboxymethylcellulose (CMC) 100 % of control and 102 % of control | dose: 600.0 mg/kg/injection, schedule: Q01DX001 (ip), vehicle: saline 94 % of control | dose: 1000.0 mg/kg/injection, schedule: Q#A X Z (oral), vehicle: carboxymethylcellulose (CMC) 100 % of control and 106 % of control and 102 % of control

COc1cc(/C=C/C(=O)c2ccc3ccccc3c2)cc(OC)c1OC
inactive: [9] 97 % of control | [10] 107 % of control | [11] 87 % of control

CCOP(=O)(NN(C)C)OCC
inactive: dose: 12.5 mg/kg/injection, schedule: Q01DX009 (ip), vehicle: saline 107 % of control | dose: 12.5 mg/kg/injection, schedule: Q04DX003 (ip), vehicle: saline 96 % of control | dose: 25.0 mg/kg/injection, schedule: Q01DX009 (ip), vehicle: saline 104 % of control | dose: 25.0 mg/kg/injection, schedule: Q04DX003 (ip), vehicle: saline 104 % of control | [1] 102 % of control | dose: 50.0 mg/kg/injection, schedule: Q04DX003 (ip), vehicle: saline 107 % of control | [3] 102 % of control | [4] 101 % of control | dose: 200.0 mg/kg/injection, schedule: Q01DX009 (ip), vehicle: saline 95 % of control | [6] 106 % of control | [8] 112 % of control | [12] 96 % of control

OCC1COc2ccccc2O1 (configuration not stated)
inactive: [4] 101 % of control | [6] 106 % of control | [12] 103 % of control

CCSc1nc(C)cc(Cl)n1
inactive: dose: 100.0 mg/kg/injection, schedule: Q04DX003 (ip), vehicle: saline with Tween-80 100 % of control | dose: 200.0 mg/kg/injection, schedule: Q04DX003 (ip), vehicle: saline with Tween-80 93 % of control

CC(C)(C)c1ccc(/C=[N+](\[O-])C(C)(C)C)c(C(C)(C)C)c1O
inactive: dose: 50.0 mg/kg/injection, schedule: Q04DX002 (ip), vehicle: saline with Tween-80 102 % of control | [9] 98 % of control | [10] 102 % of control | [11] 95 % of control

O=C(Nc1nc2ccccc2[nH]1)C(F)(F)F
inactive: [2] 97 % of control | [5] 100 % of control | [7] 97 % of control

CCCCCCC(C1CCCCC1)C1CCCCC1
inactive: dose: 100.0 mg/kg/injection, schedule: Q01DX001 (ip), vehicle: carboxymethylcellulose (CMC) 86 % of control | dose: 200.0 mg/kg/injection, schedule: Q01DX001 (ip), vehicle: carboxymethylcellulose (CMC) 102 % of control | dose: 400.0 mg/kg/injection, schedule: Q01DX001 (ip), vehicle: carboxymethylcellulose (CMC) 91 % of control

C[n+]1ccc(N2CCCCC2)c2ccc(Cl)cc21
inactive: dose: 2.0 mg/kg/injection, schedule: Q01DX001 (ip), vehicle: saline 111 % of control

CCOC(=O)c1ccc(NC(=O)Oc2ccc(-c3ccccc3)cc2)cc1
inactive: dose: 100.0 mg/kg/injection, schedule: Q01DX001 (ip), vehicle: saline with Tween-80 96 % of control | dose: 100.0 mg/kg/injection, schedule: Q01DX009 (ip), vehicle: saline with Tween-80 97 % of control and 102 % of control | [9] 94 % of control and 100 % of control | dose: 200.0 mg/kg/injection, schedule: Q01DX001 (ip), vehicle: saline with Tween-80 88 % of control | dose: 200.0 mg/kg/injection, schedule: Q01DX009 (ip), vehicle: saline with Tween-80 92 % of control and 97 % of control | [10] 101 % of control and 88 % of control | dose: 400.0 mg/kg/injection, schedule: Q01DX001 (ip), vehicle: saline with Tween-80 96 % of control | dose: 400.0 mg/kg/injection, schedule: Q01DX009 (ip), vehicle: saline with Tween-80 93 % of control and 100 % of control | [11] 97 % of control

— PubChem BioAssay AID248 (DTP/NCI, 2004)
